Consider 12 molecules from ChEMBL document CHEMBL1201862, “PubChem BioAssay data set” (2004).

What is called GI50 is the concentration giving 50% growth inhibition.

What all share (experiment): DTP human tumour cell line panel, 48 h
Experiment [1] has as its system NCI-H460.
In experiment [2] the test system is NCI-H23.
Experiment [3] concerns MOLT-4.
Experiment [4] relates to SF-539.
The test system of experiment [5] is K562.
Experiment [6] deals with RXF 393.
Experiment [7] deals with NCI/ADR-RES.
Experiment [8] deals with OVCAR-8.
The test system of experiment [9] is SF-295.
The test system of experiment [10] is SN12C.
In experiment [11] the test system is EKVX.
Experiment [12] has as its system IGROV-1.
In experiment [13] the test system is RPMI-8226.
The test system of experiment [14] is SK-OV-3.
Experiment [15] has as its system HOP-62.
Experiment [16] relates to SR.
Experiment [17] has as its system ACHN.
Experiment [18] has as its system TK-10.
Experiment [19] relates to MDA-MB-435.

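All cell lines were grown in 96-well plates and treated with compound for 48 hours. GI50 = concentration required for 50% inhibition of growth.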 Calls of active or inactive are those of the source. Rule as the data show it: active = GI50 up to about 1.1 µM and inactive = higher. Bounds are passed on as bounds.

`CCN(CC)CCCC(C)Nc1c2ccc(Cl)cc2nc2cc(Cl)ccc12` (configuration not stated): the GI50 in experiment [1] is 3.31 µM (inactive); in [2], 6.62 µM (inactive); in experiment [3] it was 1.98 µM (inactive); in [4], 4.34 µM (inactive); in experiment [5], 2.21 µM (inactive); in [6] it was 3.23 µM (inactive). Moreover, the GI50 was 3.44 µM (inactive) in experiment [7]; 4.55 µM (inactive) in experiment [8]; 3.4 µM (inactive) in experiment [9]; 4.66 µM (inactive) in experiment [10]; 9.73 µM (inactive) in experiment [11]; 4.76 µM (inactive) in [12]. In addition, the results for the GI50 in experiment [13], in experiment [14] and in experiment [15] were 2.23 µM (inactive), 5.6 µM (inactive) and 8.18 µM (inactive), respectively.
On to `CCOC(=O)C1=C(O)C(=O)c2ccccc2C1=O`, for which the GI50 is > 100 µM (inactive) in [16]; > 100 µM (inactive) in [1]; 44.3 µM (inactive) in [2]; > 100 µM (inactive) in [3]; > 100 µM (inactive) in experiment [4]; > 100 µM (inactive) in [5]. The GI50 was > 100 µM (inactive) in experiment [6]; > 100 µM (inactive) in experiment [8]; 96.6 µM (inactive) in experiment [9]; > 100 µM (inactive) in [10]; > 100 µM (inactive) in experiment [11]; > 100 µM (inactive) in experiment [12]. In addition, the GI50 in experiment [17], in [18], in experiment [13], in [14] and in [15] was > 100 µM (inactive) each time.
In the case of `Clc1cccc(N2CCN(CCCN3CCc4c([nH]c5ccccc45)C3c3cccnc3)CC2)c1` (configuration not stated), the GI50 in experiment [16] was 2.29 µM (inactive); in experiment [1], 6.22 µM (inactive); in experiment [2], 10.7 µM (inactive); in [3] it was 3.88 µM (inactive); in [4] it was 3.61 µM (inactive); in [5], 3.78 µM (inactive). The GI50 in experiment [6] was 1.58 µM (inactive); in experiment [8], 10.8 µM (inactive); in experiment [9], 6.92 µM (inactive); in [10], 12.8 µM (inactive); in [11] it was 15.3 µM (inactive); in experiment [12], 29.6 µM (inactive). In addition, the GI50 in experiment [17] was 12.4 µM (inactive); in experiment [18], > 10 µM (inactive); in [13], 6.15 µM (inactive); in experiment [14] it was 14.6 µM (inactive); in experiment [15], 14.3 µM (inactive).
Turning to `C/C=C/C(=O)[C@@H](O)C(C)C`, the GI50 in experiment [16], in experiment [2], in experiment [3], in experiment [5], in experiment [6] and in [8] was > 100 µM (inactive) in each case. The GI50 in experiment [9], in experiment [10], in experiment [11], in experiment [12], in [17] and in experiment [18] was > 100 µM (inactive) each time. Also, the GI50 in experiment [13] and in [14] was > 100 µM (inactive) each time.
Take `Clc1ccc(-c2c(C3=NCCCN3)nnn2-c2ccccc2)cc1`: the GI50 in experiment [16] is 56.1 µM (inactive); in experiment [1], 33.6 µM (inactive); in experiment [2] it was > 100 µM (inactive); in [3], > 100 µM (inactive); in [4], > 100 µM (inactive); in [5], 41.7 µM (inactive). Also, the GI50 in experiment [6], in experiment [8], in experiment [9], in experiment [10], in experiment [11] and in [12] was > 100 µM (inactive) in each case. Further, the GI50 in experiment [17], in experiment [18], in [14] and in experiment [15] was > 100 µM (inactive) throughout.
As to `CC(=O)Nc1ccc(SC#N)c2c(NC(C)=O)cccc12`, the GI50 is 33.6 µM (inactive) in experiment [16]; > 100 µM (inactive) in experiment [1]; > 100 µM (inactive) in experiment [2]; 28.7 µM (inactive) in experiment [3]; > 100 µM (inactive) in experiment [4]; 34 µM (inactive) in experiment [5]. For the same molecule, the GI50 in [6], in [8], in experiment [9], in experiment [10], in experiment [11] and in experiment [12] was > 100 µM (inactive) throughout. Also, the GI50 is > 100 µM (inactive) in experiment [17]; > 100 µM (inactive) in experiment [18]; 24.4 µM (inactive) in experiment [13]; > 100 µM (inactive) in experiment [14]; > 100 µM (inactive) in [15].
As to `C[C@]12CCC(=O)C(O)=C1CCC2=O`, the GI50 in experiment [16], in [1], in experiment [3], in experiment [4], in experiment [6] and in experiment [8] was > 100 µM (inactive) each time. For the same molecule, the GI50 in experiment [9], in [10], in [11], in experiment [12], in experiment [17] and in experiment [18] was > 100 µM (inactive) each time. In addition, the GI50 in experiment [13], in experiment [14] and in [15] was > 100 µM (inactive) each time.
For `CC(=O)OCCOCNC(=S)N/N=C/c1ccc([N+](=O)[O-])s1`, the GI50 in experiment [16] is 9.68 µM (inactive); in experiment [1], 42.4 µM (inactive); in experiment [2], 19 µM (inactive); in [3] it was 28.8 µM (inactive); in experiment [4], 34 µM (inactive); in experiment [5], 21.7 µM (inactive). The GI50 in [6] is > 100 µM (inactive); in experiment [8] it was 45.5 µM (inactive); in experiment [9] it was 40.4 µM (inactive); in experiment [10], 36.4 µM (inactive); in experiment [11] it was 55.5 µM (inactive); in experiment [12], 34 µM (inactive). Further, the GI50 in [17] was 46.5 µM (inactive); in experiment [18] it was > 100 µM (inactive); in experiment [13], 29.1 µM (inactive); in [14] it was > 100 µM (inactive); in experiment [15], > 100 µM (inactive).
Consider `O=C1C[S+]([O-])c2ccccc2N1` (configuration not stated), for which the GI50 in experiment [16] is 45.5 µM (inactive); in [1] it was 66.1 µM (inactive); in experiment [2], > 100 µM (inactive); in experiment [3] it was > 100 µM (inactive); in experiment [4], > 100 µM (inactive); in experiment [5] it was > 100 µM (inactive). Besides, the GI50 in experiment [6], in [8], in [9], in [10], in experiment [11] and in experiment [12] was > 100 µM (inactive) each time. Further, the GI50 in [17] is > 100 µM (inactive); in experiment [18], > 100 µM (inactive); in [13], 45.8 µM (inactive); in experiment [14], > 100 µM (inactive); in [15] it was > 100 µM (inactive).
Take `CCOC(=N)CC(=O)Nc1cccc(C)c1C`: the GI50 is > 100 µM (inactive) in experiment [16]; > 100 µM (inactive) in experiment [1]; > 100 µM (inactive) in experiment [2]; 2.77 µM (inactive) in experiment [3]; > 100 µM (inactive) in experiment [4]; > 10 µM (inactive) in experiment [5]. The GI50 in experiment [6], in experiment [8], in [9], in experiment [10], in experiment [11] and in [12] was > 100 µM (inactive) throughout. Moreover, the GI50 in [17], in [18], in [14] and in [15] was > 100 µM (inactive) throughout.
Regarding `CCCCCCCCCCCCCCCC(=O)N[C@H]1CCc2cc(OC)c(OC)c(OC)c2-c2ccc(SC)c(=O)cc21`, the 50% growth inhibitory concentration (GI50) in [16] is 0.258 µM (active); in experiment [1], 0.376 µM (active); in experiment [2] it was 0.29 µM (active); in [3], 1.23 µM (inactive); in [4], 0.294 µM (active); in [5] it was 0.325 µM (active). The GI50 in [6] was 3.02 µM (inactive); in experiment [8] it was 0.557 µM (active); in experiment [9] it was 0.664 µM (active); in experiment [10] it was 0.649 µM (active); in [11], 0.454 µM (active); in [12], 2.58 µM (inactive). The GI50 in experiment [17] is 2.2 µM (inactive); in experiment [18], 0.492 µM (active); in experiment [13], 3.64 µM (inactive); in experiment [14], 1.67 µM (inactive); in [15], 7.73 µM (inactive).
With `O=C1Cc2c([nH]c3ccc(Br)cc23)-c2cc(Br)ccc2N1`, the GI50 in [19] is > 100 µM (inactive); in experiment [1], > 100 µM (inactive); in [2], > 100 µM (inactive); in [3] it was 86.3 µM (inactive); in experiment [4] it was > 100 µM (inactive); in experiment [5] it was > 100 µM (inactive). Also, the GI50 in experiment [7], in experiment [8], in experiment [9], in experiment [11], in experiment [17] and in experiment [18] was > 100 µM (inactive) in each case. In addition, the GI50 in experiment [13] and in experiment [14] was > 100 µM (inactive) in each case.
